# Measured values taken from US20050192279A1, “Pyridazinones as antagonists of alpha4 integrins” (priority 2004, published 2005).
# Several values for one entry are separate records, joined by “and”; a condition that tells them apart may be missing. Equal entries are not always repeated.
# Test system: eosinophil peroxidase levels in ear punches
# Test: PMA-Induced Inflammation in Mouse Ear Skin and Measurement of Eosinophil Peroxidase
# Assay type: in vivo, BALB/C mice
# Details: total dose 5 mg/kg po bid; ear punches 24 h after PMA; 5 mg/kg
# Protocol: Phorbol 12-Myristate 13-Acetate (PMA)-Induced Inflammation in Mouse Ear Skin and Measurement of Eosinophil Peroxidase
# Phorbol 12-myristate 13-acetate (PMA) when applied to skin, generates a vigorous recruitment of immune cells to the site of application. Over a 24 hour period, there is accumulation of fluid and cells to the inflamed site, and thus is a general indicator of an inflammatory response. Among the recruited cells are eosinophils and neutrophils. Eosinophils can migrate into an inflamed or infected tissue via alpha 4 beta 1 integrin interactions with vascular cell adesion molecule-1 (VCAM-1) counter-receptors on vascular endothelial cells, and via alpha 4 beta 7 integrin to mucosal addressin cellular adhesion molecule on vascular endothelial cells in the gastrointestinal tract and mesenteric system. The recruited esoinophils can be quantified by measuring the presence of eosinophil peroxidase in a sample of the homogenized tissue.
# Female BALB/C mice are ordered at 6 weeks of age and 16-18 grams from Charles River were used between 6-10 weeks of age. The animals were randomly assigned to groups of 10 (5/box) and housed in groups in plastic cages in a room with 12 h light-dark cycle and controlled temperature and humidity. They received food and water ad libitum.
# Phorbol 12-myristate 13-acetate (PMA) was dissolved as 5 mg per mL stock in dimethyl sulfoxide (DMSO) and stored frozen as 20 microliter aliquots. For application to mouse ears, each aliquot was diluted in 2 mL with acetone.
# The right ear of each mouse was treated topically with 20 microliters of acetone solution (10 microliters to each side of the ear) containing either 1 microgram of phorbol 12-myristate 13-acetate (PMA) or acetone alone.
# Drugs that were tested orally were administered at −1 and +3 hours relative to PMA application.
# Mice were sacrificed 24 h after PMA application. The right ear was punched with a 6 mm tissue punch and the tissue was placed in a tube on dry ice and kept frozen until extraction.
# One tablet of phosphate citrate buffer was dissolved with urea hydrogen peroxide in 100 ml of water in which one tablet containing 60 mg of o-phenylenediaminedihydrochloride was added.
# Ear tissue samples were homogenized in 2 ml of HTAB for 15 sec at speed 5.5 with a Polytron (large head) (Brinkman Instruments). The homogenate was stored at −20° C. until assayed. […]
# Samples were typically tested at either a 1:2 or 1:4 dilution made with HTAB. […] Absorbance was read at 490 nm for the specific with subtraction of a 650 nm noise signal using a Thermomax 96-well spectrophotmetric plate reader (Molecular Devices). […]
# The inhibition of PMA-induced ear edema was measured by eosinophil peroxidase levels in ear punches. […]
structure (smiles),measurement,value
C[C@@H]1C[C@H]2[C@@H]3CCC4=CC(=O)C=C[C@]4(C)[C@@]3(F)[C@@H](O)C[C@]2(C)[C@@]1(O)C(=O)CO [dexamethasone],% Inh. of Eosinophil Peroxidase,83.6% and 109.0%
